According to patent US20210147807A1, “METHODS FOR PURIFYING ENDODERM AND PANCREATIC ENDODERM CELLS DERIVED FROM HUMAN EMBRYONIC STEM CELLS” (HELMHOLTZ ZENTRUM MUNCHEN - DEUTSCHES FORSCHUNGSZENTRUM FUR …, priority 2017, published 2021):

Tests used:
[1] = test system: CD177+ and CD275+ ADE subpopulations in the bulk CXCR4+ DE population; assay: Modulation of ADE differentiation efficiency by BMP/TGF-β inhibitors during endoderm induction, FACS percentage of CD177+ and CD275+ ADE; type: cell-based, human; details: for percentage of CD275+ DE differentiation: combination of 2.5 μM DMH1 and 1 μM SB431542, endoderm differentiation until D4
Experimental: I-K) Pie charts representing the percentage of CD177+ and CD275+ ADE subpopulations generated using no inhibition of pathways (I, condition 1), with high inhibition of BMP signalling using BMP inhibitor DMH1 (J, condition 2) and with moderate BMP inhibition and low TGF-β inhibition (K, condition 3).
(§1) H9, Mel1-NKX6.1-GFPand iPSCs were cultured on 1:30 diluted Geltrex (Invitogen, U.K, Cat #A1413302) in StemMACS iPS-Brew medium (Miltenyi Biotech, Germany, Cat #130-104-368). At ^˜70-80% confluency, cultures were rinsed with 1×DPBS without Mg2+ and Ca2+ (Invitrogen, Cat #14190) followed by incubation with 0.5 mM EDTA (Applichem, Cat #12604-021) for 2-3 min at 37° C. Single cells were rinsed with iPS-Brew, and spun at 1,300 r.p.m. for 3 mins. The resulting cell pellet was suspended in iPS-Brew medium supplemented with Y-27632 (10 μM; Sigma-Aldrich; MO, Cat #Y0503) and the single cell suspension was seeded at ^˜1.5-2×10 s cells/cm2 on Geltrex-coated surfaces. Cultures were fed every day with iPS-Brew medium and differentiation was initiated 24 h following seeding, resulting in ^˜90% starting confluency. The cells were differentiated towards definitive endoderm using MCDB131 medium supplemented with 0.5% BSA (Sigma, Cat #10775835001), 100 ng/ml Activin A (Peprotech, Cat #120-14-300) and 25 ng/ml WNT3A (Peprotech, Cat #315-20) for the first day. For the next 2 days, the cells were treated with MCDB131 supplemented with 0.5% BSA and 100 ng/ml Activin A. For differentiation towards β cells, Rezania, et. al; 2014 β-cell differentiation protocol was used 14. In nutshell, the cells were differentiated towards primitive gut tube with MCDB131 supplemented with 0.5% BSA, 50 ng/ml of FGF7 (Peprotech, Cat #100-19-100) and 0.25 mM Vit.C (Sigma, Cat #120-14-300) for 2 days. For differentiation towards posterior foregut, the cells were further exposed to MCDB131 medium supplemented with 1xGlutamax (Gibco, Cat #A12860-01), 2% BSA (Cat #10775835001), 0.25 mM Vit. C (Sigma, Cat #A4544-25G), 50 ng/ml FGF7, 0.25 μM SANT-1 (Sigma, Cat #54572-5MG), 1 μM retinoic acid (Sigma, Cat #R2625-50MG), 100 nM LDN193189 (Sigma, Cat #04-0074), 1:200 ITS-X (Gibco, Cat #51500-056) and 200 nM TPB (Merk Millipore, Cat #565740-1MG) for 2 days. For the WNT inhibition experiment only, 1.25 μM of IWP2 (Tocris, Cat #3533-10) was added to the cultures. The cells were then further differentiated towards pancreatic endoderm using MCDB131 supplemented with 1xGlutamax, 10 mM final glucose concentration, 2% BSA, 0.25 mM Vit.C, 2 ng/ml FGF7, 0.25 μM SANT-1, 0.1 μM retinoic acid, 200 nM LDN193189, 1:200 ITS-X and 100 nM TPB for 3 days. […]

[2] = test system: PDX1+/NKX6.1+ PP2 cells derived from CD177+, CD275+ and CXCR4+ subpopulations; assay: Inhibition of WNT secretion during gut tube patterning, FACS for PDX1+/NKX6.1+ PP2 cells from sorted ADE subpopulations; type: cell-based, human; details: after addition of IWP2 (1.25 μM) at S2, 2D culture
Experimental: A) Overview of differentiation protocol towards pancreatic progenitors where inhibition of WNT secretion is performed at […] stage using IWP2 B-D) FACS quantification (B) and immunocytochemistry (C-D) for the percentage of cells expressing
PDX1+/NKX6.1+ generated from CD177+-, CD275+- and CXCR4+-ADE before (B, C), Scale bars, 50 μm and after (B, D) the treatment with IWP2. Scale bars, 20 μm.
as §1, with “Vit.” for “Vit. C (Sigma, Cat #A4544-25G), 50 ng/ml FGF7, 0.25 μM SANT-1 (Sigma, Cat #54572-5MG), 1 μM retinoic acid (Sigma, Cat #R2625-50MG), 100 nM LDN193189 (Sigma, Cat #04-0074), 1:200 ITS-X (Gibco, Cat #51500-056) and 200 nM TPB (Merk Millipore, Cat #565740-1MG) for 2 days. For the WNT inhibition experiment only, 1.25 μM of IWP2 (Tocris, Cat #3533-10) was added to the cultures. The cells were then further differentiated towards pancreatic endoderm using MCDB131 supplemented with 1xGlutamax, 10 mM final glucose concentration, 2% BSA, 0.25 mM Vit.C, 2 ng/ml FGF7, 0.25 μM SANT-1, 0.1 μM retinoic acid, 200 nM LDN193189, 1:200 ITS-X and 100 nM TPB for 3 days.”

[3] = standard differentiation without inhibitor 21%

Row | Structure (SMILES) | percentage of CD275+ ADE in the bulk CXCR4+ DE population ([1]; 4 μM DMH1 with 100 ng/ml AA, endoderm differentiation until D4, standard differentiation without inhibitor 21%) [%] | percentage of CD177+ ADE in the bulk CXCR4+ DE population ([1]; 4 μM DMH1 with 100 ng/ml AA, endoderm differentiation until D4, standard differentiation without inhibitor 35.5%) [%] | percentage of CD275+ DE differentiation [1, 3] [%] | percentage of PDX1+/NKX6.1+ PP2 cells derived from CD275+ ADE ([2]; without IWP2 approx. 30%) [%] | percentage of PDX1+/NKX6.1+ PP2 cells derived from CXCR4+ DE ([2]; without IWP2 approx. 45%) [%] | change in percentage of PDX1+/NKX6.1+ double positive PP2 cells in CD177+-derived PP2s ([2]; without IWP2 approx. 75%)
1 | CC(C)Oc1ccc(-c2cnc3c(-c4ccnc5ccccc45)cnn3c2)cc1 [DMH1] | 14 | 80.5 | 54.0 | – | – | –
2 | Cc1ccc2nc(NC(=O)CSc3nc4c(c(=O)n3-c3ccccc3)SCC4)sc2c1 [IWP2] | – | – | – | 50 | 75 | No differences were observed
3 | NC(=O)c1ccc(-c2nc(-c3ccc4c(c3)OCO4)c(-c3ccccn3)[nH]2)cc1 [SB431542] | – | – | 54.0 | – | – | –
